Measured values: patent publication US20230090255A1, “MAGL INHIBITOR, PREPARATION METHOD THEREFOR AND USE THEREOF” (LUNAN PHARMACEUTICAL GROUP CORPORATION, priority 2019, published 2023)

Columns and labels:
[1] = tested on: mice pain response induced by hot plate; assay: Mice pain response induced by hot plate; assay type: in vivo, ICR mice; conditions: for pain thresholds of the thermal-stimulus mice, in words: compared with the model group; for Pain threshold: hot plate 55°C
Description: Female ICR mice (20±2) g were placed on an intelligent hot plate at 55±0.5° C., and latency (s) that the plantar of mice touched the hot plate until the occurrence of a hind paws licking response served as a pain threshold indicator; the mice (response latency <5 s or >30 s) or jumping mice were eliminated.
Grouping and administration were the same as those in Example 40.
The mice were continuously administered intragastrically for 7 consecutive days; the pain threshold of each group of mice was respectively determined once at 30, 60, 90 and 120 min after the final administration; the pain threshold greater than 60 s was calculated by 60 s.

ulcerative colitis mice = assay: Mice ulcerative colitis (DSS); assay type: in vivo, BALB/c mice; conditions: for Total times of hematochezia within the four periods / Colon length / IL-1 content: DSS mice; for Colon length: four periods; for IL-1 content: serum, ELISA; for IL-1 content, in words / colon length, in words / total times of hematochezia, in words: compared with the model group
From the text: Healthy male SPF-level BALB/c mice (8-week old and body mass: (20±2) g).
Modeling: the mice were randomly divided into […] at the end of the quarantine, 10 pieces for each group. The mice in the normal group drank normal water freely, and the rest groups of mice drank 1.0%-1.5% DSS solution freely for modeling, 7 d later after modeling, the mice in the modeling group drank normal water freely for 7 d, and 14 d served as a modeling period for four continuous periods, and the mice in the modeling group were administered at the same time.
End point of the experiment: experimental administration was performed for four periods, and dissection was performed on the 3rd and 4th day of the recovery period of the 4th period.
Test indicators: the mice were weighed twice a week after the beginning of the administration; diarrhea and hematochezia of the mice were observed, and times of hematochezia were recorded.
At the end of the experiment, the mice were dissected and weighed, and narcotized to take blood, then serum was preserved at -80° C. Spleen was taken and weighed to calculate the spleen index. The content of IL-1β in serum was detected via ELISA. Colorectum was cut and taken to measure the length of colorectum, then immobilized by formaldehyde and dyed by HE to detect the pathological change.

[2] = tested on: reserpine-induced mice migraine; assay: Reserpine-induced mice migraine; assay type: in vivo, ICR mice; conditions: for blood coagulation time, in words / level of 5-HT in the brain tissue, in words / times of the tail suspension activity, in words: compared with the model group; for Blood coagulation time: reserpine 0.2 mg/kg sc mice, 1 h after final administration; for brain tissue 5-HT / Times of tail suspension (struggling times within 2 min): reserpine mice; for Times of tail suspension (struggling times within 2 min): 9th day
Description: The mice in the blank control group and model group were administered intragastrically via a solvent from the 5th day after modeling, and the rest groups of mice were respectively administered corresponding medicaments and doses for intragastric administration for 10 consecutive days; 1 h later after the final administration, the mice were weighed; blood was taken at inner canthus to detect blood coagulation time; whole blood was taken, and cerebrum was taken on an ice and preserved at -20° C. for the subsequent experiment.
Behavioral test: tail suspension activity was performed; the position 1 cm away from the tail of the mice was glued by an adhesive tape on the 9th day of the test, and the adhesive tape was penetrated by a steel needle, and hung in a dark box such that the mice were hung upside down; then the mice struggling times (total number of overturning from hanging) within 2 min were observed.
The mice were weighed 1 h later after the final administration; blood of inner canthus was taken via a capillary to detect the blood coagulation time.
Blood was taken to detect the content of 5-HT in serum via high-performance liquid chromatography. Cerebrum was taken on an ice and precooled and cleaned slightly with 0.5% sodium carboxymethylcellulose, and then sucked dry with a filter paper, and placed into a cryogenic tube, and preserved at -20° C. for further use, then the content of 5-HT in brain tissues was detected by high performance liquid chromatography.
5-HT test method: a sample was precipitated with 10% perchloric acid solution according to 1:1, and then centrifuged to take supernatant for test. Chromatographic conditions: the chromatographic column is a SHIMADZU VP-ODS C18 column (250*4.6 mm, 5 um), the mobile phase is a methanol-0.01 mol/L potassium acetate buffer solution (10:90, V/V, PH is adjusted to 4.00 with 0.2 mol/L citric acid) for gradient elution; the column temperature is 25° C., flow rate is 1.00 ml/min and test wavelength is 275 nm.

[3] = tested on: mice writhing caused by acetic acid; assay: Mice writhing caused by acetic acid; conditions: for latent time, in words / mice writhing times caused by acetic acid, in words: compared with the model group; for Writhing times: 1 h before 0.7% acetic acid ip, within 20 min; for Latent time: time to first writhing; for Inhibition ratio: writhing inhibition
Description: Each compound was prepared into a suspension by 0.5% sodium carboxymethylcellulose respectively, and then set according to the dose, and each administration group was administered intragastrically; the model group was administered intragastrically an equal volume of 0.5% sodium carboxymethylcellulose.
Mice were intraperitoneally injected with acetic acid to cause a large area and more lasting painful stimuli in deep enterocoelia, causing mice to produce writhing responses. After being administered for 1 h, each dose group was intraperitoneally injected with 0.7% acetic acid-normal saline solution (0.1 ml/10 g).
The time (pain latent time) that the mice started to appear writhing after being intraperitoneally injected with acetic acid was recorded.
The writhing response times of each mouse within 20 min were recorded after injecting acetic acid to cause pain, and then, the writhing inhibition ratio of each administration group was calculated.
Writhing inhibition ratio = [(writhing times of the control group -writhing times of the administration group)/writhing times of the control group] × 100%
Experimental data is shown by x±s and subjected to variance analysis by SPSS 15.0 software.

[4] = high dose 30 mg/kg ig 7 d, 30 min after final administration
[5] = high dose 30 mg/kg ig 7 d, 60 min
[6] = high dose 30 mg/kg ig 7 d, 90 min
[7] = high dose 30 mg/kg ig 7 d, 120 min
[8] = low dose 7.5 mg/kg ig 7 d, 30 min after final administration
[9] = low dose 7.5 mg/kg ig 7 d, 60 min
[10] = low dose 7.5 mg/kg ig 7 d, 90 min
[11] = low dose 7.5 mg/kg ig 7 d, 120 min
[12] = middle dose 15 mg/kg ig 7 d, 30 min after final administration
[13] = middle dose 15 mg/kg ig 7 d, 60 min
[14] = middle dose 15 mg/kg ig 7 d, 90 min
[15] = middle dose 15 mg/kg ig 7 d, 120 min

O=C(Nc1cccc(Cl)c1)C1CCN(C(=O)c2cc(O)ccc2F)CC1 [MAGLZ-II-11 (a)]
pain thresholds of the thermal-stimulus mice, in words [1]: significantly extend | Pain threshold [1, 4]: 39.45 ± 6.75 s | Pain threshold [1, 5]: 46.56 ± 6.35 s | Pain threshold [1, 6]: 45.42 ± 6.84 s | Pain threshold [1, 7]: 43.73 ± 5.68 s | Pain threshold [1, 8]: 36.18 ± 8.50 s | Pain threshold [1, 9]: 43.17 ± 7.43 s | Pain threshold [1, 10]: 42.83 ± 7.34 s | Pain threshold [1, 11]: 42.16 ± 7.05 s | Pain threshold [1, 12]: 38.16 ± 7.00 s | Pain threshold [1, 13]: 45.47 ± 7.03 s | Pain threshold [1, 14]: 43.71 ± 5.87 s | Pain threshold [1, 15]: 42.34 ± 7.04 s | Total times of hematochezia within the four periods (ulcerative colitis mice; high dose 30 mg/kg ig): 27.90±3.73 | Colon length (ulcerative colitis mice; high dose 30 mg/kg ig): 7.56±0.74 cm | IL-1 content (ulcerative colitis mice; high dose 30 mg/kg ig): 38.61 ± 10.98 pg/mL | Total times of hematochezia within the four periods (ulcerative colitis mice; low dose 7.5 mg/kg ig): 28.80±7.04 | Colon length (ulcerative colitis mice; low dose 7.5 mg/kg ig): 7.21±1.10 cm | IL-1 content (ulcerative colitis mice; low dose 7.5 mg/kg ig): 42.01 ± 13.92 pg/mL | Total times of hematochezia within the four periods (ulcerative colitis mice; middle dose 15 mg/kg ig): 29.10±7.14 | Colon length (ulcerative colitis mice; middle dose 15 mg/kg ig): 7.20±0.97 cm | IL-1 content (ulcerative colitis mice; middle dose 15 mg/kg ig): 40.70 ± 8.50 pg/mL | IL-1 content, in words (ulcerative colitis mice): decrease | colon length, in words (ulcerative colitis mice): significantly increase | total times of hematochezia, in words (ulcerative colitis mice): reduce | blood coagulation time, in words [2]: significantly extend | level of 5-HT in the brain tissue, in words [2]: significantly increase | times of the tail suspension activity, in words [2]: significantly increase | Blood coagulation time ([2]; high dose 30 mg/kg ig 10 d): 300.63±45.26 S | Blood coagulation time ([2]; low dose 7.5 mg/kg ig 10 d): 136.75±33.22 S | Blood coagulation time ([2]; middle dose 15 mg/kg ig 10 d): 256.88±42.93 S | brain tissue 5-HT ([2]; high dose 30 mg/kg ig 10 d): 2.97 ± 0.28 nmol/g | Times of tail suspension (struggling times within 2 min) ([2]; high dose 30 mg/kg ig): 20.75±4.98 | brain tissue 5-HT ([2]; low dose 7.5 mg/kg ig 10 d): 1.35 ± 0.38 nmol/g | Times of tail suspension (struggling times within 2 min) ([2]; low dose 7.5 mg/kg ig): 16.13±3.68 | brain tissue 5-HT ([2]; middle dose 15 mg/kg ig 10 d): 1.86 ± 0.29 nmol/g | Times of tail suspension (struggling times within 2 min) ([2]; middle dose 15 mg/kg ig): 19.88 ± 4.09 | latent time, in words [3]: extend | mice writhing times caused by acetic acid, in words [3]: significantly decrease | Writhing times ([3]; high dose 30 mg/kg ig): 12.5±9.4 | Latent time ([3]; high dose 30 mg/kg ig): 488.8 ± 172.0 s | Inhibition ratio ([3]; high dose 30 mg/kg ig): 68.2% | Writhing times ([3]; low dose 7.5 mg/kg ig): 22.6±12.0 | Latent time ([3]; low dose 7.5 mg/kg ig): 401.2 ± 168.3 s | Inhibition ratio ([3]; low dose 7.5 mg/kg ig): 42.5% | Writhing times ([3]; middle dose 15 mg/kg ig): 18.6±14.6 | Latent time ([3]; middle dose 15 mg/kg ig): 438.9 ± 230.0 s | Inhibition ratio ([3]; middle dose 15 mg/kg ig): 52.7%

O=C(Nc1cccc(Cl)c1)C1CCN(C(=O)c2cccc(O)c2)CC1 [MAGLZ-II-11]
pain thresholds of the thermal-stimulus mice, in words [1]: significantly extend | Pain threshold [1, 4]: 41.43 ± 5.15 s | Pain threshold [1, 5]: 46.16 ± 6.63 s | Pain threshold [1, 6]: 47.22 ± 5.98 s | Pain threshold [1, 7]: 45.49 ± 6.31 s | Pain threshold [1, 8]: 37.92 ± 8.83 s | Pain threshold [1, 9]: 44.14 ± 7.56 s | Pain threshold [1, 10]: 45.93 ± 8.38 s | Pain threshold [1, 11]: 43.80 ± 6.12 s | Pain threshold [1, 12]: 40.33 ± 8.25 s | Pain threshold [1, 13]: 44.87 ± 5.67 s | Pain threshold [1, 14]: 46.41 ± 5.36 s | Pain threshold [1, 15]: 43.44 ± 5.91 s | Total times of hematochezia within the four periods (ulcerative colitis mice; high dose 30 mg/kg ig): 24.80±5.43 | Colon length (ulcerative colitis mice; high dose 30 mg/kg ig): 7.68±0.75 cm | IL-1 content (ulcerative colitis mice; high dose 30 mg/kg ig): 33.83 ± 7.14 pg/mL | Total times of hematochezia within the four periods (ulcerative colitis mice; low dose 7.5 mg/kg ig): 32.00±4.94 | Colon length (ulcerative colitis mice; low dose 7.5 mg/kg ig): 6.88±0.89 cm | IL-1 content (ulcerative colitis mice; low dose 7.5 mg/kg ig): 44.57 ± 10.32 pg/mL | Total times of hematochezia within the four periods (ulcerative colitis mice; middle dose 15 mg/kg ig): 27.20±5.39 | Colon length (ulcerative colitis mice; middle dose 15 mg/kg ig): 7.26±0.67 cm | IL-1 content (ulcerative colitis mice; middle dose 15 mg/kg ig): 41.40 ± 9.50 pg/mL | IL-1 content, in words (ulcerative colitis mice): decrease | colon length, in words (ulcerative colitis mice): significantly increase | total times of hematochezia, in words (ulcerative colitis mice): reduce | blood coagulation time, in words [2]: significantly extend | level of 5-HT in the brain tissue, in words [2]: significantly increase | times of the tail suspension activity, in words [2]: significantly increase | Blood coagulation time ([2]; high dose 30 mg/kg ig 10 d): 336.88±33.09 S | Blood coagulation time ([2]; low dose 7.5 mg/kg ig 10 d): 222.5±35.52 S | Blood coagulation time ([2]; middle dose 15 mg/kg ig 10 d): 326.88±45.9 S | brain tissue 5-HT ([2]; high dose 30 mg/kg ig 10 d): 3.63 ± 5.34 nmol/g | Times of tail suspension (struggling times within 2 min) ([2]; high dose 30 mg/kg ig): 23.00±3.59 | brain tissue 5-HT ([2]; low dose 7.5 mg/kg ig 10 d): 1.54 ± 0.27 nmol/g | Times of tail suspension (struggling times within 2 min) ([2]; low dose 7.5 mg/kg ig): 14.13±1.89 | brain tissue 5-HT ([2]; middle dose 15 mg/kg ig 10 d): 2.10 ± 0.22 nmol/g | Times of tail suspension (struggling times within 2 min) ([2]; middle dose 15 mg/kg ig): 16.13±1.73 | latent time, in words [3]: extend | mice writhing times caused by acetic acid, in words [3]: significantly decrease | Writhing times ([3]; high dose 30 mg/kg ig): 13.6±13.1 | Latent time ([3]; high dose 30 mg/kg ig): 467.8 ± 175.6 s | Inhibition ratio ([3]; high dose 30 mg/kg ig): 65.4% | Writhing times ([3]; low dose 7.5 mg/kg ig): 23.4±11.7 | Latent time ([3]; low dose 7.5 mg/kg ig): 379.7 ± 129.3 s | Inhibition ratio ([3]; low dose 7.5 mg/kg ig): 40.5% | Writhing times ([3]; middle dose 15 mg/kg ig): 17.5±9.6 | Latent time ([3]; middle dose 15 mg/kg ig): 408.4 ± 128.2 s | Inhibition ratio ([3]; middle dose 15 mg/kg ig): 55.5%
